Measurements from EP4640240A1, “PEPTIDE-BASED RADIOPHARMACEUTICALS FOR NON-INVASIVE IMAGING OF THE FUNCTIONAL LIVER RESERVE” (Medizinische Universität Innsbruck, priority 2024, dated 2025).
Where two headings read alike, the source gives them in different places.

Assays:
[1] = Stability in human blood serum (radio-HPLC); assay type: in vitro ADME; details: 37 °C
Method: Ligand stability in human blood serum (n = 2) and PBS (pH = 6.5) (n = 1) was determined for different time points (2 min, 30 min, 60 min, 120 min). Therefore, approx. 5 MBq of radioligand was added to 1 mL of fresh human serum at 37 °C or PBS at rt. At each given time point 100 µL of the mixture were transferred to a 1.5 mL Eppendorf tube containing 100 µL of acetonitrile. The vial was vortexed and centrifuged for 2 min at 14,000 1/min before 100 µL of the supernatant were diluted with 200 µL of water and injected into analytical radio-HPLC. The PBS solution was directly injected into the radio-HPLC. Ligand stability was determined by integrating the areas of the signals in the radio chromatogram in relation to the signal of the intact ligand.

[2] = Partition coefficient logD (n-octanol/PBS); assay type: physicochemical; details: n=6
Method: For determination of logarithmic partition coefficients (logD) n-Octanol (500 µL) and PBS (500 µL) were pipetted into eight 1.5 mL Protein Low-Bind Eppendorf tubes followed by addition of 300 kBq of labelled compound. The vials were vortexed for 5 min at 1,500 1/min and then centrifuged for 5 min at 20,000 rcf (Eppendorf Centrifuge 5424). Aliquots of 100 µL were taken out of each phase and the amount of activity was quantified in a γ-counter (Perkin Elmer 2480 Wizard2 3"; Waltham, Massachusetts, USA).

[3] = Biodistribution studies in BALB/c mice; assay type: in vivo; details: female, mouse, iv, total radioactivity, healthy BALB/c mice, 0.1 nmol i.v.; for tissue uptake at 10 min: 10 min p.i.; for tissue uptake at 0.5 h: 30 min p.i.; for tissue uptake at 1 h: 60 min p.i.
Method: For biodistribution studies 6-week-old female BALB/c mice (n=3) were injected with 0.1 nmol (100 µL, approx. 1 MBq) of labelled compound via the lateral tail vein and sacrificed after 10, 30, or 60 min by cervical dislocation. The mice were dissected, blood and organs (spleen, pancreas, stomach, intestine, liver, kidney, heart, lung, muscle and bone) were weighed and their activity measured in a γ-counter. For blocking experiments, mice were co-injected with 27.7 µmοl N-acetylgalactose.

[4] = Protein binding in human serum (MicroSpin G-50 columns); assay type: in vitro ADME; details: fresh human serum, 37 °C, n=3
Method: Protein binding was determined for different time points (2 min, 30 min, 60 min, 120 min) in triplicates using Sephadex MicroSpin G-50 columns (GE-Healthcare, Chicago, Illinois, USA). The columns were spun initially at 20,000 rcf for 1 min to remove the storage buffer. Then approx. 5 MBq of radioligand was added to 1 mL of fresh human serum and incubated at 37 °C. At each given timepoint 25 µL of the mixture was loaded on to the column, which was then spun at 20,000 rcf for 1 min. The activity content on the column (free radioligand) and in the filtrate (protein bound fraction) was quantified in a γ-counter.

[5] = Blood, read-out: Biodistribution data, Blood
[6] = Femur, read-out: Biodistribution data, Femur
[7] = Heart, read-out: Biodistribution data, Heart
[8] = Intestine, read-out: Biodistribution data, Intestine
[9] = Kidneys, read-out: Biodistribution data, Kidneys
[10] = Liver, read-out: Biodistribution data, Liver
[11] = Lung, read-out: Biodistribution data, Lung
[12] = Muscle, read-out: Biodistribution data, Muscle
[13] = Pancreas, read-out: Biodistribution data, Pancreas
[14] = Spleen, read-out: Biodistribution data, Spleen
[15] = Stomach, read-out: Biodistribution data, Stomach

Structure (SMILES): NC(=O)CNC(=O)CNC(=O)[C@H](CCCCNC(=O)CCCCc1cn(C2O[C@H](CO)[C@H](O)[C@H](O)[C@H]2O)nn1)NC(=O)CNC(=O)CNC(=O)[C@H](CCCCNC(=O)CCCCc1cn(C2O[C@H](CO)[C@H](O)[C@H](O)[C@H]2O)nn1)NC(=O)CNC(=O)CNC(=O)[C@H](CCCCNC(=O)CCCCc1cn(C2O[C@H](CO)[C@H](O)[C@H](O)[C@H]2O)nn1)NC(=O)CNC(=O)CNC(=O)[C@H](CCCCNC(=O)CCCCc1cn(C2O[C@H](CO)[C@H](O)[C@H](O)[C@H]2O)nn1)NC(=O)CNC(=O)CNC(=O)[C@H](CCCCNC(=O)CCCCc1cn(C2O[C@H](CO)[C@H](O)[C@H](O)[C@H]2O)nn1)NC(=O)CNC(=O)CNC(=O)[C@H](CCCCNC(=O)CCCCc1cn(C2O[C@H](CO)[C@H](O)[C@H](O)[C@H]2O)nn1)NC(=O)CCCNC(=O)CC[C@H](C(=O)O)N1CCN(CC(=O)O)CCN(CC(=O)O)CC1 (stereo partly drawn) [[68Ga]Ga-HexaLysan, metal not drawn]
- remaining at 2 min ([1]; 2 min, n=2, read-out: Serum stability (% of intact ligand)): 99.4 ± 0.2%
- Serum stability (% of intact ligand) ([1]; 30 min, n=2): 99.7 ± 0.1%
- remaining at 1 h ([1]; 60 min, n=2, read-out: Serum stability (% of intact ligand)): 99.9 ± 0.1%
- remaining at 2 h ([1]; 120 min, n=2, read-out: Serum stability (% of intact ligand)): 99.9 ± 0.1%
- logD [2]: -4.34 ± 0.13
- tissue uptake at 10 min [3, 5]: 2.1 ± 0.04 %ID/g
- tissue uptake at 0.5 h [3, 5]: 0.63 ± 0.07 %ID/g
- tissue uptake at 1 h [3, 5]: 1.05 ± 0.41 %ID/g
- tissue uptake at 10 min [3, 6]: 0.48 ± 0.06 %ID/g
- tissue uptake at 0.5 h [3, 6]: 0.33 ± 0.03 %ID/g
- tissue uptake at 1 h [3, 6]: 0.002 ± 0.001 %ID/g
- tissue uptake at 10 min [3, 7]: 0.94 ± 0.05 %ID/g
- tissue uptake at 0.5 h [3, 7]: 0.37 ± 0.09 %ID/g
- tissue uptake at 1 h [3, 7]: 0.25 ± 0.02 %ID/g
- tissue uptake at 10 min [3, 8]: 1.19 ± 0.25 %ID/g
- tissue uptake at 0.5 h [3, 8]: 3.97 ± 0.28 %ID/g
- tissue uptake at 1 h [3, 8]: 5.94 ± 1.67 %ID/g
- tissue uptake at 10 min [3, 9]: 4.83 ± 0.3 %ID/g
- tissue uptake at 0.5 h [3, 9]: 1.94 ± 0.22 %ID/g
- tissue uptake at 1 h [3, 9]: 1.34 ± 0.34 %ID/g
- tissue uptake at 10 min [3, 10]: 54.8 ± 3.02 %ID/g
- tissue uptake at 0.5 h [3, 10]: 55.5 ± 7.37 %ID/g
- tissue uptake at 1 h [3, 10]: 45.9 ± 11.8 %ID/g
- tissue uptake at 10 min [3, 11]: 1.61 ± 0.16 %ID/g
- tissue uptake at 0.5 h [3, 11]: 0.77 ± 0.11 %ID/g
- tissue uptake at 1 h [3, 11]: 0.62 ± 0.19 %ID/g
- tissue uptake at 10 min [3, 12]: 0.93 ± 0.12 %ID/g
- tissue uptake at 0.5 h [3, 12]: 0.57 ± 0.03 %ID/g
- tissue uptake at 1 h [3, 12]: 0.41 ± 0.04 %ID/g
- tissue uptake at 10 min [3, 13]: 0.91 ± 0.05 %ID/g
- tissue uptake at 0.5 h [3, 13]: 0.69 ± 0.12 %ID/g
- tissue uptake at 1 h [3, 13]: 0.48 ± 0.13 %ID/g
- tissue uptake at 10 min [3, 14]: 0.5 ± 0.07 %ID/g
- tissue uptake at 0.5 h [3, 14]: 0.21 ± 0.06 %ID/g
- tissue uptake at 1 h [3, 14]: 0.17 ± 0.02 %ID/g
- tissue uptake at 10 min [3, 15]: 1.29 ± 0.28 %ID/g
- tissue uptake at 0.5 h [3, 15]: 1.19 ± 0.28 %ID/g
- tissue uptake at 1 h [3, 15]: 0.4 ± 0.14 %ID/g
- fraction unbound ([4]; 2 min): 0.824
- fraction unbound ([4]; 30 min): 0.782
- fraction unbound ([4]; 60 min): 0.82
- fraction unbound at 120 min, 5 MBq/mL ([4]; 120 min): 0.748
